# Experimental data published in US20250065017A1, “Fractionating Extracellular Matrix to Modulate Bioactivity and the Host Response” (University of Pittsburgh - Of the Commonwealth System of …, priority 2014, published 2025).
# Experiments:
# Sprague Dawley rats = test: Rat skeletal muscle injury model: collagen deposition and myogenesis; assay type: in vivo; conditions: UBM implant
# Experimental: An established rodent skeletal muscle injury model was used to evaluate the effect of the COX1/2 inhibitor, Aspirin, on the ECM scaffold mediated constructive remodeling response. Briefly, three days prior to the surgical procedure, animals were randomly assigned to either the Aspirin treated (3 mg/mL Aspirin in drinking water) or control (vehicle) group. Bilateral 1.5 cm×1.5 cm partial thickness defects were created in the abdominal musculature. A size-matched pre-cast UBM hydrogel and an overlying 2×2 cm single layer sheet of UBM was then placed in the muscle defect area. The remodeling response was evaluated following 3, 7, 14, and 35 days by quantitative histomorphologic metrics (Wolf M T, Carruthers […], Crapo P M, Huber A, Burnsed O A, Londono R, Johnson […] and others. Polypropylene surgical mesh coated with extracellular matrix mitigates the host foreign body response. J Biomed Mater Res A 2013 and Wolf […], Brennan-Pierce E P, Johnson S A, Carruthers […] hydrogel derived from decellularized dermal extracellular matrix. Biomaterials 2012;33(29):7028-38), including characterization of macrophage phenotype and neo tissue deposition. Thirty-two female Sprague Dawley rats (350-400 g at implantation) were purchased from Harlan Laboratories. […] Salicylates in whole blood were determined using the Salicylates Detection Kit from Neogen according to the manufacturer's instructions. […] Fast and Slow Myosin Heavy Chain: Myosin heavy chain positive cells in the defect area were determined by immunolabeling for fast and slow myosin heavy chain as previously described (Turner N J, Yates A J, Jr., Weber […], Stolz D B, Gilbert […]. Xenogeneic extracellular matrix as an inductive scaffold for regeneration of a functioning musculotendinous junction. Tissue Eng Part A 2010;16(11):3309-17; Valentin J E, Turner N J, Gilbert […]. Functional skeletal muscle formation with a biologic scaffold. Biomaterials 2010;31(29):7475-84; and Wolf […]. Biologic scaffold composed of skeletal muscle extracellular matrix. […]
# THP1 cells = test: CD206 and CD86 expression by western blot; assay type: cell-based, human; conditions: Aspirin 200 μM with UBM hydrogel
# Experimental: THP-1 human monocytes were obtained from the American Tissue Culture Collection (ATCC, Manassas, VA) and maintained in RPMI, 10% FBS, 1% penicillin/streptomycin, 2 mM L-glutamine, and 1 mM sodium pyruvate in a humidified atmosphere at 37° C. with 5% CO2. For experiments, 500,000 THP-1 cells/mL were plated with 320 nM phorbol 12-myristate 13-acetate (PMA) for 24 hours to induce differentiation into macrophages. Adherent macrophages were washed in PBS and placed in fresh media, followed by a 24 hour incubation to acquiesce.
# THP1 macrophage-like cells prepared as described in the cell culture section had 200 μM Aspirin added (where appropriate) 1 hour prior to UBM hydrogel (0.5 mg/mL) treatment. Cells were then treated with UBM hydrogel for 4, 8, or 24 hours. At the specified time points, cells were washed extensively with 1× PBS and lysis buffer (50 mM Tris, 20 mM NaCl, 1% Triton X-100) was added. Cells were mechanically removed from the culture dish, transferred to centrifuge tubes and incubated on ice for 10 minutes. Lysates were spun down at 14000 rpm for 20 minutes at 4° C. to remove any debris. The clarified lysate was stored at −80° C. Lysates were diluted 1:1 in 2× Laemmli Sample Buffer (Bio-Rad, Hercules, CA) and boiled at 95° C. for 5 minutes. Samples were then resolved on 9% SDS-PAGE gels (National Diagnostics) and transferred to polyvinyldifluoride (PVDF, Millipore) membranes. Membranes were blocked with 1:1 Odyssey Blocking Buffer:1×PBS (Licor) overnight at 4° C. Blocked membranes were immunoblotted with either rabbit anti-human COX2 (1:5,000, Abcam), goat anti-human CD206 (1:3,000, Santa-Cruz), rabbit anti-human CD86 (1:5,000, Abcam), or mouse anti-human β-Actin (1:5,000, Abcam) in blocking buffer for 1 hour at room temperature with agitation. Membranes were extensively washed with TBST before the appropriate secondary antibodies (1:10,000, donkey anti-goat IR Dye 680, donkey-anti rabbit IR Dye 680, and donkey anti-mouse IR Dye 800, Licor) in imaging buffer (1:1 Odyssey Blocking Buffer, 0.02% SDS in TBST) were added for 30 minutes with agitation. […]
smiles,measurement,setting,value
CC(=O)Oc1ccccc1C(=O)O [Aspirin],reduction in collagen deposition,"Sprague Dawley rats; 35 day time point, 3 mg/mL Aspirin in drinking water",24%
same,reduction in myogenesis (myogenic index) compared to non-treated controls,Sprague Dawley rats; 35 days post implantation,4 fold
same,in vivo reduction in myogenesis,Sprague Dawley rats,79%
same,maximum increase in CD86 expression,THP1 cells; at 24 hours,0.15 fold
same,reduction in CD206 expression,THP1 cells; at 24 hours,91%
same,CD206 expression,THP1 cells; early time points,did not alter CD206 expression
